Reference: ChEMBL document CHEMBL1201862, “PubChem BioAssay data set” (2004)
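Assay format: 96-well plates, 48-hour exposure. The concentration for 50% growth inhibition is given as GI50.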 Activity calls are given as the source filed them. Rule as the data show it: active = GI50 up to about 1.1 µM and inactive = higher.

Experiments:
Experiment in all cases: inhibition of tumour cell growth, NCI panel, 48 h
786-0 = test system: 786-0
CAKI-1 = test system: CAKI-1
COLO 205 = test system: COLO 205
HCT-116 = test system: HCT-116
HCT-15 = test system: HCT-15
HOP-62 = test system: HOP-62
IGROV-1 = test system: IGROV-1
M14 = test system: M14
MCF7 = test system: MCF7
MOLT-4 = test system: MOLT-4
OVCAR-5 = test system: OVCAR-5
RPMI-8226 = test system: RPMI-8226
SF-295 = test system: SF-295
SF-539 = test system: SF-539
SK-MEL-28 = test system: SK-MEL-28
SK-MEL-5 = test system: SK-MEL-5
SN12C = test system: SN12C
SNB-75 = test system: SNB-75
U-251 = test system: U-251
UACC-62 = test system: UACC-62

| Structure (SMILES) | GI50 (786-0) | GI50 (CAKI-1) | GI50 (COLO 205) | GI50 (HCT-116) | GI50 (HCT-15) | GI50 (HOP-62) | GI50 (IGROV-1) | GI50 (M14) | GI50 (MCF7) | GI50 (MOLT-4) | GI50 (OVCAR-5) | GI50 (RPMI-8226) | GI50 (SF-295) | GI50 (SF-539) | GI50 (SK-MEL-28) | GI50 (SK-MEL-5) | GI50 (SN12C) | GI50 (SNB-75) | GI50 (U-251) | GI50 (UACC-62) |
| --- | --- | --- | --- | --- | --- | --- | --- | --- | --- | --- | --- | --- | --- | --- | --- | --- | --- | --- | --- | --- |
| C=C(C)[C@@H](C(=O)OC)N1C(=O)c2ccccc2C1=O | > 100 µM (inactive) | > 100 µM (inactive) | > 100 µM (inactive) | > 100 µM (inactive) | > 100 µM | > 100 µM (inactive) | > 100 µM (inactive) | > 100 µM (inactive) | > 100 µM (inactive) | > 100 µM (inactive) | > 100 µM (inactive) | > 100 µM (inactive) | > 100 µM (inactive) | > 100 µM (inactive) | > 100 µM (inactive) | > 100 µM (inactive) | > 100 µM (inactive) | > 100 µM (inactive) | > 100 µM (inactive) | > 100 µM (inactive) |
| CCOC(=O)/C=C(/C(=O)OCC)n1cc(C)c(=O)[nH]c1=O | 2.49 µM (inactive) | 1.15 µM (inactive) | 1.81 µM (inactive) | 2.43 µM (inactive) | 2.04 µM | 18.9 µM (inactive) | 5.36 µM (inactive) | 1.95 µM (inactive) | 3.89 µM (inactive) | 2.44 µM (inactive) | 5.87 µM (inactive) | 2.47 µM (inactive) | 17.3 µM (inactive) | 13.2 µM (inactive) | 4.78 µM (inactive) | 8.81 µM (inactive) | 5.06 µM (inactive) | 10.3 µM (inactive) | 6.62 µM (inactive) | 5.14 µM (inactive) |
| Cc1ccc(NC(=O)c2ccc(OP(=O)(O)Nc3ccc(C)cc3)cc2)cc1 | > 100 µM (inactive) | > 100 µM (inactive) | > 100 µM (inactive) | > 100 µM (inactive) | > 100 µM | > 100 µM (inactive) | > 100 µM (inactive) | 64.4 µM (inactive) | > 100 µM (inactive) | > 100 µM (inactive) | > 100 µM (inactive) | > 100 µM (inactive) | > 100 µM (inactive) | > 100 µM (inactive) | > 100 µM (inactive) | > 100 µM (inactive) | > 100 µM (inactive) | > 100 µM (inactive) | > 100 µM (inactive) | > 100 µM (inactive) |
| Cc1cc(C)c2c(O)cc(-c3ccc4ccccc4c3)nc2n1 | 39.8 µM (inactive) | 54.6 µM (inactive) | 18.3 µM (inactive) | 13.8 µM (inactive) | 6.1 µM | 32.1 µM (inactive) | 12.6 µM (inactive) | 17.3 µM (inactive) | 15.5 µM (inactive) | 3.66 µM (inactive) | 43.8 µM (inactive) | 6.31 µM (inactive) | 16.2 µM (inactive) | 30.8 µM (inactive) | > 47.4 µM (inactive) | 2.7 µM (inactive) | 43.7 µM (inactive) | 15.8 µM (inactive) | 16.7 µM (inactive) | 14.7 µM (inactive) |
| O=C(Nc1ccn(C2CCC(COC(c3ccccc3)(c3ccccc3)c3ccccc3)O2)c(=O)n1)c1ccccc1 (stereo not given) | 2.64 µM (inactive) | 4.51 µM (inactive) | 1.77 µM (inactive) | 3.33 µM (inactive) | 4.18 µM | 10.7 µM (inactive) | 6.04 µM (inactive) | 3.48 µM (inactive) | 4.22 µM (inactive) | 2.56 µM (inactive) | 3.76 µM (inactive) | 2.31 µM (inactive) | 3.11 µM (inactive) | 3.43 µM (inactive) | 9.23 µM (inactive) | 2.78 µM (inactive) | 1.88 µM (inactive) | 2.39 µM (inactive) | 4.06 µM (inactive) | 5.5 µM (inactive) |
| CCCCCNC(=O)c1cc2cc(CCl)ccc2oc1=O | 1.34 µM (inactive) | 1.21 µM (inactive) | 1.33 µM (inactive) | 3.84 µM (inactive) | 1.95 µM | 5.69 µM (inactive) | 4.71 µM (inactive) | 9.12 µM (inactive) | 5.97 µM (inactive) | 6.68 µM (inactive) | 2.88 µM (inactive) | 10 µM (inactive) | 6.56 µM (inactive) | 2.67 µM (inactive) | 9.42 µM (inactive) | 16.6 µM (inactive) | 1.72 µM (inactive) | 4.44 µM (inactive) | 9.98 µM (inactive) | 2.45 µM (inactive) |
| COc1ccc2[nH]c(Cl)c(/C=C3/C(=O)N(c4ccccc4)c4ccccc43)c2c1 | 6.37 µM (inactive) | 10.6 µM (inactive) | 2.18 µM (inactive) | 5.07 µM (inactive) | 2.58 µM | 6.81 µM (inactive) | 4.84 µM (inactive) | 3.66 µM (inactive) | 0.506 µM (active) | 3.82 µM (inactive) | 13.6 µM (inactive) | 2.82 µM (inactive) | 2.48 µM (inactive) | 3.03 µM (inactive) | 8.49 µM (inactive) | 2.28 µM (inactive) | 4.78 µM (inactive) | 12.3 µM (inactive) | 3.98 µM (inactive) | 5.21 µM (inactive) |
